Like-named read-outs stand apart in the source and are kept apart here.
How the values were obtained:
[1] = Crossover PK study: plasma sumatriptan by LC/MS/MS after ID/junctional vs SC administration (Tmax, Cmax, AUC, relative F); type: in vivo, Yucatan miniswine; conditions: for rel. F 10 min / rel. F Total: compared to SC; for Cmax / AUC: minipig, plasma; for AUC: read-out: AUC 10 mm. (converted)
Description: Percent (%) relative Bioavailability (F) for each dosing condition was calculated compared to the SC condition: [formula]

[2] = tested on: Yorkshire Swine skin (injection site); conditions: pig, in vivo
Description: A total of 12 Yorkshire Swine (Archer Farms) were used. Each pig received one injection according to a randomization schedule (RS) once a day for a total of nine injections. Animals were not exposed to all possible injection combinations, because of the incomplete block design.
These skin sites were observed immediately upon removal of the device and at 30 minutes, 1, 2, 3, 4, 6, 8 and 24 hours and skin effects documented using the Draize Dermal Irritation method. […] Responder pigs were assigned to the following pig numbers on the randomization table in the following order: 1, 4, 2, 5, 3, and 6.
Syringe based microneedle systems: 30 gauge 1.5 mm ID needle with skin penetration limiter (Lot #E216801); 2 mm ID needle with limiter incorporating a 30 gauge ½ inch length needle with an ID bevel and a skin penetration limiter to allow 2 mm penetration; 3 mm needle with limiter incorporating a 30 gauge ½ inch length needle with a bevel and a skin penetration limiter to allow 3 mm penetration. All syringe based devices were connected to an accurate leur lock (LL) volumetric syringe for measuring the dose volume, and were administered in a bolus injection fashion using manual control of delivery rate.
During the delivery period, the microneedle array is held in place flat against the skin via an integral adhesive ring incorporated on the hub. The catheter hub is also connected via an integral length of medical grade tubing to a Leur inlet, which is in turn connected to a 1 ml syringe as the drug reservoir. The flow rate and delivery volume from the syringe are controlled via a programmable, highly accurate volumetric syringe pump.
Pigs were fasted for 12-18 hours prior to anesthesia. A mixture of Rompun® (2 mg/kg), Telazol® (4 mg/kg), and Ketamine (2 mg/kg) were given IM to sedate. Atropine (0.02 mg/kg) was given IM directly after sedation to avoid excessive salivation. Swine were masked down with Isoflurane if needed during the injection time.
TREATMENT DAY 1: The hair on both flanks of the pig were clipped and the skin wiped clean with chlorohexaderm scrub and alcohol. A clean, unblemished area was selected. Injection was performed according to a randomization schedule.
For 34-gauge catheter set devices, a BD 1 mL LL syringe and a Harvard syringe pump were used to control flow rate (100 μl/min). Devices remained in place for 1 minute following the injection. For 30-gauge syringe system, injections were performed over 50-60 seconds using manual rate control. After injection, photos were taken of skin effects. The skin site was marked with a permanent skin marker for later identification of site. Pigs were recovered in their runs.
TREATMENT DAY 2-9: All steps from Day 1 were repeated on alternate flanks of each pig following a pre-assigned randomization schedule.
The model included a pig effect, time effect, gauge, depth and solution main effects as well as all two-way interactions.

[3] = Yucatan miniswine, 1 × 1.5 mm × 30 g, 0 mg/ml
[4] = Yucatan miniswine, 1 × 2 mm × 30 g, 30 mg/ml
[5] = Yucatan miniswine, 1 × 3 mm × 30 g, 30 mg/ml
[6] = Yucatan miniswine, 3 × 2 mm × 34 g, 30 mg/ml
[7] = Yucatan miniswine, sc, 12 mg/ml
[8] = Yucatan, 3 × 3 mm × 34 g, 12 mg/ml

Q: Which AUC total ([1]; 1 × 1.5 mm × 30 g, 0 mg/ml) does the source give for `CNS(=O)(=O)Cc1ccc2[nH]cc(CCN(C)C)c2c1` [sumatriptan, 3-[2-(dimethylamino)ethyl]-N-methyl-indole-5-methanesulfonamide] here?
A: 27696.167 ng·min/mL

Q: What about the “rel. F 10 min” value ([1]; 1 × 1.5 mm × 30 g, 0 mg/ml) of the same compound?
A: 186.777%

Q: And the “rel. F Total” value ([1]; 1 × 1.5 mm × 30 g, 0 mg/ml)?
A: 117.806%

Q: What about the AUC total ([1]; 1 × 2 mm × 30 g, 30 mg/ml) of the same compound?
A: 23548.167 ng·min/mL

Q: What about the “rel. F 10 min” value ([1]; 1 × 2 mm × 30 g, 30 mg/ml) of the same compound?
A: 165.993%

Q: And the “rel. F Total” value ([1]; 1 × 2 mm × 30 g, 30 mg/ml)?
A: 100.162%

Q: What about the AUC total ([1]; 1 × 3 mm × 30 g, 30 mg/ml) of the same compound?
A: 27335.167 ng·min/mL

Q: And the “rel. F 10 min” value ([1]; 1 × 3 mm × 30 g, 30 mg/ml)?
A: 190.490%

Q: What about the “rel. F Total” value ([1]; 1 × 3 mm × 30 g, 30 mg/ml) of the same compound?
A: 116.270%

Q: And the AUC total ([1]; 3 × 2 mm × 34 g, 30 mg/ml)?
A: 30006.000 ng·min/mL

Q: And the “rel. F 10 min” value ([1]; 3 × 2 mm × 34 g, 30 mg/ml)?
A: 153.272%

Q: What about the “rel. F Total” value ([1]; 3 × 2 mm × 34 g, 30 mg/ml) of the same compound?
A: 127.631%

Q: And the AUC total ([1]; 3 × 3 mm × 34 g, 12 mg/ml)?
A: 25642.833 ng·min/mL

Q: And the “rel. F 10 min” value ([1]; 3 × 3 mm × 34 g, 12 mg/ml)?
A: 116.434%

Q: And the “rel. F Total” value ([1]; 3 × 3 mm × 34 g, 12 mg/ml)?
A: 109.072%

Q: And the AUC total ([1]; 3 × 3 mm × 34 g, 30 mg/ml)?
A: 25947.667 ng·min/mL

Q: What about the “rel. F 10 min” value ([1]; 3 × 3 mm × 34 g, 30 mg/ml) of the same compound?
A: 117.806%

Q: What about the “rel. F Total” value ([1]; 3 × 3 mm × 34 g, 30 mg/ml) of the same compound?
A: 110.369%

Q: What about the AUC total ([1]; IV, 12 mg/ml) of the same compound?
A: 16626.000 ng·min/mL

Q: And the “rel. F 10 min” value ([1]; IV, 12 mg/ml)?
A: 131.820%

Q: And the “rel. F Total” value ([1]; IV, 12 mg/ml)?
A: 70.719%

Q: And the “Maximum concentration levels at early time points” value ([1]; Intradermal and/or junctional administration vs SC)?
A: elevated

Q: What about the AUC total ([1]; SC, 12 mg/ml) of the same compound?
A: 23510.000 ng·min/mL

Q: What about the “rel. F 10 min” value ([1]; SC, 12 mg/ml) of the same compound?
A: 100.000%

Q: And the “rel. F Total” value ([1]; SC, 12 mg/ml)?
A: 100.000%

Q: What about the Cmax [1, 3] of the same compound?
A: 824 ng/mL

Q: And the AUC [1, 3]?
A: 84.7 ng·h/mL

Q: What about the Cmax [1, 4] of the same compound?
A: 849 ng/mL

Q: And the AUC [1, 4]?
A: 75.2 ng·h/mL

Q: And the Cmax [1, 5]?
A: 837 ng/mL

Q: And the AUC [1, 5]?
A: 86.4 ng·h/mL

Q: And the Cmax [1, 6]?
A: 726 ng/mL

Q: What about the AUC [1, 6] of the same compound?
A: 69.5 ng·h/mL

Q: What about the Cmax ([1]; Yucatan miniswine, 3 × 3 mm × 34 g, 30 mg/ml) of the same compound?
A: 649 ng/mL

Q: What about the Cmax [1, 7] of the same compound?
A: 527 ng/mL

Q: And the AUC [1, 7]?
A: 45.3 ng·h/mL

Q: What about the Cmax [1, 8] of the same compound?
A: 706 ng/mL

Q: And the AUC [1, 8]?
A: 52.8 ng·h/mL

Q: And the AUC ([1]; Yucatan, 3 × 3 mm × 34 g, 30 mg/ml)?
A: 53.4 ng·h/mL

Q: And the Cmax ([1]; Yucatan, iv, 12 mg/ml)?
A: 661 ng/mL

Q: And the AUC ([1]; Yucatan, iv, 12 mg/ml)?
A: 59.8 ng·h/mL

Q: What about the “Erythema Mean” value ([2]; 4 h) of the same compound?
A: 0.1

Q: And the “Erythema Median” value ([2]; 4 h)?
A: 0.2

Q: What about the “Edema Median” value ([2]; 6 h) of the same compound?
A: 0

Q: And the “Edema Median” value ([2]; 8 h)?
A: 0

Q: And the “Edema Mean” value ([2]; 24 h)?
A: 0.0

Q: And the “Edema Median” value ([2]; 24 h)?
A: 0

Q: What about the “Erythema Mean” value ([2]; 24 h) of the same compound?
A: 0.0

Q: What about the “Erythema Median” value ([2]; 24 h) of the same compound?
A: 0.0
